Measurements: ChEMBL document CHEMBL1156607, “A new multi-gram synthetic route to labeling precursors for the D(2/3) PET agent 18F-fallypride” (Bioorg Med Chem Lett, 2008)

Target: D(2) dopamine receptor (Homo sapiens, UniProt P14416)
Test: Antagonist activity at dopamine D2 receptor
Format: functional

D(2) dopamine receptor, sequence (P14416 whole entry): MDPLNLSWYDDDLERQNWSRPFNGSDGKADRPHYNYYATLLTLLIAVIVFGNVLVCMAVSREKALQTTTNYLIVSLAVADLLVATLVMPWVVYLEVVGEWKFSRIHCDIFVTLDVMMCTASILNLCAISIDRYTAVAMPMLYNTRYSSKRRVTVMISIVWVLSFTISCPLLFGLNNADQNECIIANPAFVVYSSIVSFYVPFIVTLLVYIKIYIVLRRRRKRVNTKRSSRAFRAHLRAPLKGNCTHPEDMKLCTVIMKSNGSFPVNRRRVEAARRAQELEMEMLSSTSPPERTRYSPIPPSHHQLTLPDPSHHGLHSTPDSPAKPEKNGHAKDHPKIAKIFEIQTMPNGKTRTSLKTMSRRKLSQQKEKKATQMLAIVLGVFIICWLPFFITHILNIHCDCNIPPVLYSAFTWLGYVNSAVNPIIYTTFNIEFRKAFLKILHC

With `C=CCN1CCC[C@H]1CNC(=O)c1cc(CCCCl)cc(OC)c1OC` the IC50 was 0.0171 µM.
`C=CCN1CCC[C@H]1CNC(=O)c1cc(CCCF)cc(OC)c1OC` [FALLYPRIDE] was tested, and the IC50 was 0.005 µM.
